Measurements reported in PubChem BioAssay AID1259407 (Chemical Carcinogenesis Research Information System (CCRIS), 2018).
The source made the active and inactive calls. How the calls were made is not given here.

System: CCRIS mutagenicity, Ames/micronucleus/aberration tests
Experiment: CCRIS mutagenicity studies
[1] = Test System: AMES SALMONELLA TYPHIMURIUM, Strain/Indicator: TA98, Metabolic Activation: NONE, Method: PREINCUBATION
[2] = Test System: AMES SALMONELLA TYPHIMURIUM, Strain/Indicator: TA98, Metabolic Activation: RAT, LIVER, S-9, PCB, Method: PREINCUBATION
[3] = Test System: AMES SALMONELLA TYPHIMURIUM, Strain/Indicator: TA100, Metabolic Activation: NONE, Method: PREINCUBATION
[4] = Test System: AMES SALMONELLA TYPHIMURIUM, Strain/Indicator: TA100, Metabolic Activation: RAT, LIVER, S-9, PCB, Method: PREINCUBATION
[5] = Test System: AMES SALMONELLA TYPHIMURIUM, Strain/Indicator: TA98, Metabolic Activation: NONE, Method: STANDARD PLATE

Measured: mutagenic call

O=C1c2ccccc2C(=O)c2c1cc(O)c(CO)c2O
inactive: Test System: AMES SALMONELLA TYPHIMURIUM, Strain/Indicator: TA1535, Metabolic Activation: NONE, Method: PREINCUBATION inactive; negative | Test System: AMES SALMONELLA TYPHIMURIUM, Strain/Indicator: TA1535, Metabolic Activation: RAT, LIVER, S-9, AROCLOR 1254, Method: PREINCUBATION inactive; negative
active: [1] active; positive | Test System: AMES SALMONELLA TYPHIMURIUM, Strain/Indicator: TA98, Metabolic Activation: RAT, LIVER, S-9, AROCLOR 1254, Method: PREINCUBATION active; positive | [2] active; positive | [3] active; positive | Test System: AMES SALMONELLA TYPHIMURIUM, Strain/Indicator: TA100, Metabolic Activation: RAT, LIVER, S-9, AROCLOR 1254, Method: PREINCUBATION active; positive | [4] active; positive | Test System: AMES SALMONELLA TYPHIMURIUM, Strain/Indicator: TA102, Metabolic Activation: NONE, Method: PREINCUBATION active; positive | Test System: AMES SALMONELLA TYPHIMURIUM, Strain/Indicator: TA102, Metabolic Activation: RAT, LIVER, S-9, AROCLOR 1254, Method: PREINCUBATION active; positive | Test System: AMES SALMONELLA TYPHIMURIUM, Strain/Indicator: TA102, Metabolic Activation: RAT, LIVER, S-9, Method: PREINCUBATION active; positive | Test System: AMES SALMONELLA TYPHIMURIUM, Strain/Indicator: TA104, Metabolic Activation: NONE, Method: PREINCUBATION active; positive | Test System: AMES SALMONELLA TYPHIMURIUM, Strain/Indicator: TA104, Metabolic Activation: RAT, LIVER, S-9, AROCLOR 1254, Method: PREINCUBATION active; positive | Test System: AMES SALMONELLA TYPHIMURIUM, Strain/Indicator: TA1537, Metabolic Activation: NONE, Method: PREINCUBATION active; positive | Test System: AMES SALMONELLA TYPHIMURIUM, Strain/Indicator: TA1537, Metabolic Activation: RAT, LIVER, S-9, AROCLOR 1254, Method: PREINCUBATION active; positive | Test System: AMES SALMONELLA TYPHIMURIUM, Strain/Indicator: TA1537, Metabolic Activation: RAT, LIVER, S-9, Method: PREINCUBATION active; positive | Test System: AMES SALMONELLA TYPHIMURIUM, Strain/Indicator: TA1538, Metabolic Activation: NONE, Method: PREINCUBATION active; positive | Test System: AMES SALMONELLA TYPHIMURIUM, Strain/Indicator: TA1538, Metabolic Activation: RAT, LIVER, S-9, AROCLOR 1254, Method: PREINCUBATION active; positive | Test System: CHINESE HAMSTER V-79, Strain/Indicator: V-79/AZAGUANINE, Metabolic Activation: NONE, Method: STANDARD PLATE active; positive | Test System: UDS RODENT HEPATOCYTES, Strain/Indicator: THY INCORP, Metabolic Activation: NONE active; positive

O=[N+]([O-])c1ccc2cc(O)c3cccc4ccc1c2c43
active: [5] active; positive | Test System: AMES SALMONELLA TYPHIMURIUM, Strain/Indicator: TA98, Metabolic Activation: RAT, LIVER, S-9, AROCLOR 1254, Method: STANDARD PLATE active; positive

CCOP(=O)(OCC)Oc1cc(C)nc(C(C)C)n1
inactive: [5] inactive; negative | Test System: AMES SALMONELLA TYPHIMURIUM, Strain/Indicator: TA98, Metabolic Activation: RAT, LIVER, S-9, Method: STANDARD PLATE inactive; negative | Test System: AMES SALMONELLA TYPHIMURIUM, Strain/Indicator: TA100, Metabolic Activation: RAT, LIVER, S-9, Method: STANDARD PLATE inactive; negative
active: Test System: AMES SALMONELLA TYPHIMURIUM, Strain/Indicator: TA100, Metabolic Activation: NONE, Method: STANDARD PLATE active; positive

Clc1nncc2ccccc12
inactive: [1] inactive; negative | [2] inactive; negative | [3] inactive; negative | [4] inactive; negative
